Columns and labels:
D(2) dopamine receptor [1] = biological target: T1, D(2) dopamine receptor (Homo sapiens, UniProt P14416)
D(3) dopamine receptor [2] = biological target: T2, D(3) dopamine receptor (Homo sapiens, UniProt P35462); test: biochemical
D(2) dopamine receptor [3] = biological target: T1, D(2) dopamine receptor; test: Antagonist activity at human D2R expressed in CHOK1 cells assessed as inhibition of dopamine-induced beta-arrestin recruitment measured after 120 mins by beta-galactosidase based PathHunter assay relative to sulpiride; assay type: cell-based; conditions: 2 h, read-out: Imax
D(2) dopamine receptor [4] = biological target: T1, D(2) dopamine receptor; test: Agonist activity at human D2R expressed in CHOK1 cells assessed as induction of beta-arrestin recruitment measured after 90 mins by beta-galactosidase based PathHunter assay; assay type: cell-based
D(3) dopamine receptor [5] = biological target: T2, D(3) dopamine receptor; test: Agonist activity at human D3R expressed in CHOK1 cells assessed as induction of beta-arrestin recruitment measured after 90 mins by beta-galactosidase based PathHunter assay; assay type: cell-based
[6] = biological target: 5-hydroxytryptamine receptor 2B (Homo sapiens, UniProt P41595); test: Antagonist activity at recombinant human 5-HT2B receptor expressed in CHOK1 cells assessed as inhibition of serotonin-induced increase in inositol1-phosphate accumulation measured after 30 mins by HTRF assay; assay type: functional, cell-based
Chain of 5-hydroxytryptamine receptor 2B (P41595 whole entry): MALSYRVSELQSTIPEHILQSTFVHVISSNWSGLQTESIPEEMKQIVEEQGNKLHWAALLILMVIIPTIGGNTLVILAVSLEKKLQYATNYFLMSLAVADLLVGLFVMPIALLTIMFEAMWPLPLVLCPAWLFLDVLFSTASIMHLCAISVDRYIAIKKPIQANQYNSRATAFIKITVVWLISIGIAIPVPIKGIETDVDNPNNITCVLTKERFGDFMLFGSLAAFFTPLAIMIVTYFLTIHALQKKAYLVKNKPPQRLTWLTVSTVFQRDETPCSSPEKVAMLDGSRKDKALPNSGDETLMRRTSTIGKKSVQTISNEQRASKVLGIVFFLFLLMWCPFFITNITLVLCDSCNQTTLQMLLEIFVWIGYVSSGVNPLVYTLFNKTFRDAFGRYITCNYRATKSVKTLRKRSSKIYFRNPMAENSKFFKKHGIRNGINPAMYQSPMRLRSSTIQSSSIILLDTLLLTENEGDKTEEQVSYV

D(2) dopamine receptor [7] = biological target: T1, D(2) dopamine receptor; test: Antagonist activity at human D2R expressed in CHOK1 cells assessed as inhibition of dopamine-induced beta-arrestin recruitment measured after 120 mins by beta-galactosidase based PathHunter assay; assay type: cell-based

T1 sequence (P14416 whole entry): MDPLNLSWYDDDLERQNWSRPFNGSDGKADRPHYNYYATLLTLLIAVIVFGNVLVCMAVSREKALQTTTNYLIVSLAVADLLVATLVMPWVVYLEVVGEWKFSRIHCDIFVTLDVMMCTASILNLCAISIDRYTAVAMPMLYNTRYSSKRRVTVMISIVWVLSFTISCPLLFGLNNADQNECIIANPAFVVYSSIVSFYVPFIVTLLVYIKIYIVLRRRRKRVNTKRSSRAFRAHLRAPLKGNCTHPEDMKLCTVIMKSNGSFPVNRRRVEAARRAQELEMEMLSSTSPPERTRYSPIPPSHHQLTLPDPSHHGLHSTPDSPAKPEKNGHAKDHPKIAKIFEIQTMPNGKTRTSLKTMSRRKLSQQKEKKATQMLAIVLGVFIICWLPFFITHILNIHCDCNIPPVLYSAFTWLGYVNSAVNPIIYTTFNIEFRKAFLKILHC
T2 sequence (P35462 whole entry): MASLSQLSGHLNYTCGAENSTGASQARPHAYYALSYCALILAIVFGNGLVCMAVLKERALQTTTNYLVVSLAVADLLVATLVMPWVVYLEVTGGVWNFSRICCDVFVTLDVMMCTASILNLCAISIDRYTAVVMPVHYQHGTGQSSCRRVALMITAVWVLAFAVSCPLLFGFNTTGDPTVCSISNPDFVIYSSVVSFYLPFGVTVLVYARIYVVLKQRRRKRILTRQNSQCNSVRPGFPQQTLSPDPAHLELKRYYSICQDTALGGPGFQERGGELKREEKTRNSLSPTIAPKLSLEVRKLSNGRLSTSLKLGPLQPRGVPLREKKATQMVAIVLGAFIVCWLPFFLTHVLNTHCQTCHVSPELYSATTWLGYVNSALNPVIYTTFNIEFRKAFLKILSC

SMILES | Emax (D(2) dopamine receptor [3]) | EC50 (D(2) dopamine receptor [4]) | EC50 (D(3) dopamine receptor [5]; read-out: EC50) | IC50 (D(2) dopamine receptor [7]; read-out: IC50) | also measured
COc1ccc(OCCN2CCN(C(=O)c3ccc(OC)cc3)CC2)cc1 | 88% | Not Active | 710 nM |  | IC50 (D(2) dopamine receptor [1]): > 100000 nM; IC50 (D(3) dopamine receptor [2]): 10000 to 100000 nM
Cn1ccc2cc3c(cc21)CCN3C(=O)Nc1cccnc1 |  |  |  |  | EC50 [6]: 13 nM
COc1ccc(C(=O)N2CCN(CCOc3ccc(Cl)cc3)CC2)cc1 | 101% | Not Active |  | > 10000 nM | 
CCOc1ccc(OCCN2CCN(C(=O)c3cc4ccccc4[nH]3)CC2)cc1 |  | Not Active | > 100000 nM | > 100000 nM | 
Cc1ccc(OCCN2CCN(C(=O)c3cc4ccccc4[nH]3)CC2)cc1Cl |  | Not Active | 997 nM |  | IC50 (D(2) dopamine receptor [7]): Not Active
COc1ccc(OCCN2CCN(C(=O)c3cc4ccccc4[nH]3)CC2)c(Cl)c1 |  | Not Active | 41 nM | > 10000 nM | 
COc1ccc(C(=O)N2CCN(CCOc3ccc4c(c3)OCO4)CC2)cc1 | 87% | Not Active | 310 nM | > 10000 nM | 
CCc1ccc(C(=O)N2CCN(CCOc3ccc(OC)cc3)CC2)cc1 | 106% | Not Active | 530 nM | 6000 nM | 
O=C(c1cc2ccccc2[nH]1)N1CCN(CCOc2ccc(F)cc2)CC1 | 72% |  | 126 nM | 9700 nM | EC50 (D(2) dopamine receptor [4]; read-out: EC50): > 50000 nM
Cc1ccc(OCCN2CCN(C(=O)c3cc4ccccc4[nH]3)CC2)cc1 |  |  | 151 nM | > 100000 nM | EC50 (D(2) dopamine receptor [4]; read-out: EC50): > 50000 nM
O=C(c1cc2ccccc2[nH]1)N1CCN(CCOc2ccc(OC(F)(F)F)cc2)CC1 |  |  | 3800 nM | > 100000 nM | EC50 (D(2) dopamine receptor [4]; read-out: EC50): > 100000 nM
COc1ccc(OCCN2CCN(C(=O)c3cc4ccccc4[nH]3)CC2)cc1OC |  | Not Active | 710 nM | > 50000 nM | 
COc1ccc(OCCN2CCN(C(=O)c3ccc(Cl)cc3)CC2)cc1 | 107% | Not Active |  | 9000 nM | EC50 (D(3) dopamine receptor [5]): Not Active
Cc1ccc(OCCN2CCN(C(=O)c3cc4ccccc4[nH]3)CC2)cc1C | 88% | Not Active | 610 nM | 13000 nM | 
O=C(c1cc2ccccc2[nH]1)N1CCN(CCOc2ccccn2)CC1 |  | Not Active | 3500 nM | > 100000 nM | 
COc1ccc(OCCN2CCN(C(=O)c3cc4ccccc4n3C)CC2)cc1 | 105% | Not Active | 310 nM | 9600 nM | 
O=C(c1cc2ccccc2[nH]1)N1CCN(CCOc2cccnc2)CC1 |  |  | 7 nM |  | IC50 (D(2) dopamine receptor [7]): Not Active; EC50 (D(2) dopamine receptor [4]; read-out: EC50): 570 nM
O=C(c1cc2ccccc2[nH]1)N1CCN(CCOc2cncc(Cl)c2)CC1 |  |  | 5 nM |  | IC50 (D(2) dopamine receptor [7]): Not Active; EC50 (D(2) dopamine receptor [4]; read-out: EC50): 790 nM
O=C(c1cc2ccccc2[nH]1)N1CCN(CCOc2ccccc2)CC1 | 37% |  | 9.2 nM | 535 nM | EC50 (D(2) dopamine receptor [4]; read-out: EC50): 1800 nM
O=C(c1cc2ccccc2[nH]1)N1CCN(CCOc2ccc(Cl)cc2)CC1 |  | Not Active | 114 nM | > 50000 nM | 
COc1ccc(OCCN2CCN(C(=O)c3cc4ccccc4o3)CC2)cc1 | 111% | Not Active |  | 7700 nM | 
COc1ccc(OC(C)CN2CCN(C(=O)c3ccc(OC)cc3)CC2)cc1 (stereo not given) | 89% | Not Active |  | 18000 nM | 
O=C(c1cc2ccccc2[nH]1)N1CCN(CCOc2ccncc2)CC1 |  | Not Active | 472 nM | > 100000 nM | 
COc1cccc(OCCN2CCN(C(=O)c3cc4cnccc4[nH]3)CC2)c1 | 30% |  | 280 nM | 7400 nM | EC50 (D(2) dopamine receptor [4]; read-out: EC50): 830 nM

Reference: ChEMBL document CHEMBL4402608 (J Med Chem, 2020)
